Publication PMC8284453 (Antimicrobial Agents and Chemotherapy, 2021)
Values after ≈ are worked out from the molar mass of the structure shown.

Columns and labels:
[1] = test system: Enterobacterales expressing class A carbapenemases (KPC); assay: organism not typed; type: cell-based, K. pneumoniae, E. coli, E. cloacae, Klebsiella oxytoca
[2] = test system: Enterobacterales expressing class D oxacillinases (OXA-48/48-like); assay: organism not typed; type: cell-based, E. coli, K. pneumoniae; details: for MIC50 / MIC90: 25 isolates, BLI fixed at 4 μg/ml, AMC 2:1
E. coli ESBL4 (CTX-M-15) [3] = assay: Broth microdilution MIC; type: cell-based; details: modal value, 5 independent determinations
[4] = test system: E. cloacae ECL01 (TEM-72, ACT-1, P99AmpC); assay: 24-h time-kill assay; type: cell-based; details: lowest concentration with ≥3-log10 CFU/ml reduction at 24 h
Experimental: (§1) In vitro antibacterial time-kill assay. […] Time-kill assays were performed in 14 ml glass tubes or deep-well storage plates with a bacterial inoculum in CAMHB of 5 × 10^5 CFU/ml. The tubes/plates were incubated at 37°C with shaking at 200 rpm, and aliquots were drawn at six time points (0, 2, 4, 6, 8, and 24 h) to conduct 0.5 log10 dilutions in CAMHB in 96-well plates that were incubated overnight at 37°C and used to ascertain viable bacterial counts. The lowest quantifiable amount by this method is 2 log10 CFU/ml.

[5] = test system: K. pneumoniae 752286 (OXA-48); assay: 24-h time-kill assay; type: cell-based; details: lowest concentration with ≥3-log10 CFU/ml reduction at 24 h
Experimental: as §1

E. coli ESBL4 (CTX-M-15) [6] = assay: 24-h time-kill assay; type: cell-based
Experimental: as §1

[7] = test system: K. pneumoniae ATCC BAA-1705 (KPC-2); assay: 24-h time-kill assay; type: cell-based; details: lowest concentration with ≥3-log10 CFU/ml reduction at 24 h
Experimental: as §1

Q: Which results are given for `C[C@@H](O)[C@H]1C(=O)N2C(C(=O)O)=C(S[C@H]3CC[S@@+]([O-])C3)S[C@H]12` [Sulopenem]?
A: MIC ([1]; E. coli 786978 (KPC)): ≥ 64 µg/mL; MIC ([1]; K. oxytoca 847537 (KPC)): ≥ 64 µg/mL; MIC ([1]; K. oxytoca 847539 (KPC)): 4 µg/mL (≈ 11.4 µM); MIC ([1]; K. pneumoniae 155140 (AmpC, KPC-2, SHV-12, TEM-1)): ≥ 64 µg/mL; MIC ([1]; K. pneumoniae 845661 (KPC)): ≥ 64 µg/mL; MIC ([1]; K. pneumoniae 845662 (KPC)): ≥ 64 µg/mL; MIC ([1]; K. pneumoniae 845665 (KPC)): ≥ 64 µg/mL; MIC ([1]; K. pneumoniae 845667 (KPC)): ≥ 64 µg/mL; MIC ([1]; K. pneumoniae 845670 (KPC)): 16 µg/mL (≈ 45.8 µM); MIC ([1]; K. pneumoniae 845904 (KPC)): 16 µg/mL (≈ 45.8 µM); MIC ([1]; K. pneumoniae 847204 (KPC)): 32 µg/mL (≈ 91.6 µM); MIC ([1]; K. pneumoniae 847375 (KPC)): 32 µg/mL (≈ 91.6 µM); MIC ([1]; K. pneumoniae 847378 (KPC)): 32 µg/mL (≈ 91.6 µM); MIC ([1]; K. pneumoniae 847379 (KPC)): 8 µg/mL (≈ 22.9 µM); MIC ([1]; K. pneumoniae 847383 (KPC)): 32 µg/mL (≈ 91.6 µM); MIC ([1]; K. pneumoniae 847384 (KPC)): ≥ 64 µg/mL; MIC ([1]; K. pneumoniae 847387 (KPC)): 32 µg/mL (≈ 91.6 µM); MIC ([1]; K. pneumoniae 847747 (KPC)): 32 µg/mL (≈ 91.6 µM); MIC ([1]; K. pneumoniae 848832 (KPC)): ≥ 64 µg/mL; MIC ([1]; K. pneumoniae 848844 (KPC)): 32 µg/mL (≈ 91.6 µM); MIC ([1]; K. pneumoniae 897067 (KPC)): 8 µg/mL (≈ 22.9 µM); MIC ([1]; K. pneumoniae UMM (KPC-2, SHV-5, TEM-1)): 16 µg/mL (≈ 45.8 µM); MIC50 [2]: 8 µg/mL (≈ 22.9 µM); MIC90 [2]: 16 µg/mL (≈ 45.8 µM); MIC50 ([2]; listed as sulopenem): 4 to 8 µg/mL; MIC90 ([2]; listed as sulopenem): 16 to 32 µg/mL; MIC ([2]; E. coli 664507 (OXA-48)): 8 µg/mL (≈ 22.9 µM); MIC ([2]; E. coli 664516 (OXA-48)): 16 µg/mL (≈ 45.8 µM); MIC ([2]; E. coli 664520 (OXA-48)): 8 µg/mL (≈ 22.9 µM); MIC ([2]; E. coli 664522 (OXA-48)): 16 µg/mL (≈ 45.8 µM); MIC ([2]; E. coli 664523 (OXA-48)): 4 µg/mL (≈ 11.4 µM); MIC ([2]; E. coli 664524 (OXA-48)): 8 µg/mL (≈ 22.9 µM); MIC ([2]; E. coli 664525 (OXA-48)): 16 µg/mL (≈ 45.8 µM); MIC ([2]; E. coli 664526 (OXA-48)): 8 µg/mL (≈ 22.9 µM); MIC ([2]; E. coli 664528 (OXA-48)): 8 µg/mL (≈ 22.9 µM); MIC ([2]; E. coli 787112 (OXA-48)): 16 µg/mL (≈ 45.8 µM); MIC ([2]; E. coli SI-422 (OXA-48)): 4 µg/mL (≈ 11.4 µM); MIC ([2]; E. coli VER (OXA-48)): 4 µg/mL (≈ 11.4 µM); MIC ([2]; K. pneumoniae 6299 (OXA-163)): 1 µg/mL (≈ 2.86 µM); MIC ([2]; K. pneumoniae 515746 (OXA-48), first line): 2 µg/mL (≈ 5.72 µM); MIC ([2]; K. pneumoniae 515746 (OXA-48), second line): 4 µg/mL (≈ 11.4 µM); MIC ([2]; K. pneumoniae 664438 (OXA-48)): 8 µg/mL (≈ 22.9 µM); MIC ([2]; K. pneumoniae 664439 (OXA-48)): 8 µg/mL (≈ 22.9 µM); MIC ([2]; K. pneumoniae 664509 (OXA-48)): ≥ 64 µg/mL; MIC ([2]; K. pneumoniae 664518 (OXA-48)): 8 µg/mL (≈ 22.9 µM); MIC ([2]; K. pneumoniae 722870 (OXA-48)): 8 µg/mL (≈ 22.9 µM); MIC ([2]; K. pneumoniae BAH (OXA-204)): 4 µg/mL (≈ 11.4 µM); MIC ([2]; K. pneumoniae DEL (OXA-232)): 32 µg/mL (≈ 91.6 µM); MIC ([2]; K. pneumoniae DOV (OXA-48)): 2 µg/mL (≈ 5.72 µM); MIC ([2]; K. pneumoniae KIRK (OXA-162)): 4 µg/mL (≈ 11.4 µM); MIC ([2]; K. pneumoniae SI-C17 (OXA-48)): 16 µg/mL (≈ 45.8 µM); MIC (E. coli ESBL4 (CTX-M-15) [3]): 0.12 µg/mL (≈ 0.343 µM); MBC [4]: 1 µg/mL (≈ 2.86 µM); MBC [5]: >32 µg/mL; outcome of 24-h time-kill assay (E. coli ESBL4 (CTX-M-15) [6]; Fig. 3a, CTB 2 μg/ml with BLI at 4 μg/ml, CTB alone 8 μg/ml, amoxicillin 8/clavulanic acid 4 μg/ml, penems 2 μg/ml): bactericidal activity; MBC (E. coli ESBL4 (CTX-M-15) [6]; lowest concentration with ≥3-log10 CFU/ml reduction at 24 h): 0.12 µg/mL (≈ 0.343 µM); MBC [7]: 32 µg/mL (≈ 91.6 µM)
